Results published in patent publication US5516897A, “Monoazo reactive dyes and solutions thereof” (Zeneca Limited, priority 1992, dated 1996).

Assay: solubility in water
Type: physicochemical
Conditions: for solubility in water: temperature not stated
Text: The concentrated solution was desalinated in a visking tubing placed in distilled water and the water replaced periodically until no further chloride ions could be detected using […] and the product precipitated by addition of ethanol to give 46 g of the title product (80% yield) having a lambda max at 417 nm and very high solubility in water.
The higher solubility of C1 compared with D1 and D2 means that more C1 can be prepared in a given vessel than for D1 or D2.

solubility in water	Structure (SMILES)	further results
	CC(C)N(c1ccc(S(=O)(=O)O)cc1)c1nc(Cl)nc(Nc2ccc(N=Nc3cc4c(S(=O)(=O)O)cc(S(=O)(=O)O)cc4cc3S(=O)(=O)O)c(NC(N)=O)c2)n1 [Example 4]	solubility in water at 20° C. (20° C.): very high
	CCN(c1nc(Cl)nc(Nc2cc(NC(C)=O)c(N=Nc3cc(S(=O)(=O)O)c4cccc(S(=O)(=O)O)c4c3)cc2OC)n1)c1cc(S(=O)(=O)O)ccc1C [Example 5]	solubility in water at 25° C. (25° C.): good
very high	CCN(c1nc(Nc2ccc(N=Nc3cc4c(S(=O)(=O)O)cc(S(=O)(=O)[O-])cc4cc3S(=O)(=O)O)c(NC(N)=O)c2)nc(-[n+]2ccc(C(=O)O)cc2)n1)c1cc(S(=O)(=O)O)ccc1C [Example 2]	
very high	CCN(c1nc(Cl)nc(Nc2ccc(N=Nc3cc4c(S(=O)(=O)O)cc(S(=O)(=O)O)cc4cc3S(=O)(=O)O)c(NC(N)=O)c2)n1)c1cc(S(=O)(=O)O)ccc1C [Example 1]	
high	CC(C)N(c1cccc(S(=O)(=O)O)c1)c1nc(Cl)nc(Nc2ccc(N=Nc3cc4c(S(=O)(=O)O)cc(S(=O)(=O)O)cc4cc3S(=O)(=O)O)c(NC(N)=O)c2)n1 [Example 3]	
